These results are taken from patent US20060079552A1, “1-[2-(4-benzyl-4-hydroxy-piperidin-1-yl)-ethyl]-3-(2-methyl-quinolin-4-yl)-urea salt” (priority 2004, published 2006).

Molecules are shown by their SMILES. Converted amounts (≈) assume the structure as drawn. Where a name gives a salt, the structure may show the parent alone.

Data set [1] can be described thus: Solubility in water and aqueous phosphate buffer pH 7. The following applies: for Solubility Buffer pH 7 (phosphate, 100 mM): aqueous phosphate buffer pH 7, 100 mM. Format: physicochemical. The protocol: Solubility was measured in water and aqueous phosphate buffer (pH=7, 100 mM). Results are expressed as mg dissolved compound per mL solvent.
Data set [2] is described as follows: Hygroscopicity, static method (European Pharmacopoeia Technical Guide), weight increase in humidity cabinet. It is filed as physicochemical. The following applies: for Increase in weight (Δm): after exposure to 79% RH for 24 h, RT. On the procedure:
Hygroscopicity was evaluated using the static method according to European Pharmacopoeia Technical Guide. Weight increase of the compound was observed when stored in a humidity cabinet at RT/79% RH for 24 h.

A short description of data set [3]: Pharmacokinetic assessment after oral (gavage) administration in rats. The settings on record: for mean exposure, area under the curve (AUC0-inf.): oral (gavage) 10 mg per kg, male Wistar rats, blood samples over 24 h. It is filed as in vivo, male Wistar rats. The protocol:
The pharmacokinetic parameters after oral (gavage) administration of 10 mg per kg of 1-[2-(4-benzyl-4-hydroxy-piperidin-1-yl )-ethyl]-3-(2-methyl-quinolin-4-yl )-urea given as free base or sulfate salt have been determined in male Wistar rats. Blood samples were taken over a time period of 24 h after dosing and analysed with a specific and sensitive liquid chromatography-mass-spectrometry (LC-MS/MS) method. Pharmacokinetic parameters were calculated using a non-compartmental method. The mean exposure of 1-[2-(4-benzyl-4-hydroxy-piperidin-1-yl)-ethyl]-3-(2-methyl-quinolin-4-yl)-urea, expressed as area under the curve (AUC0-inf.), after administration of compound I as free base was 194 ng*h/mL. The mean exposure of 1-[2-(4-benzyl-4-hydroxy-piperidin-1-yl )-ethyl]-3-(2-methyl-quinolin-4-yl )-urea expressed as area under the curve (AUC0-inf.), after administration of the compound described in Example 1 was 396 ng*h/mL.

Data set [4] in a line: Stress test / behaviour at higher temperature and higher humidity. Format: physicochemical. On the procedure: NMR spectra were recorded on a Varian Mercury 300VX NMR Spectrometer. The spectra are referenced to tetramethylsilane as external standard. X-ray diffraction patterns (XRD) were recorded on a Bruker D5000, using a CU-Kalpha (1.5418 Å) source, a 40 kV-30 mA generator, in a range of 3 et 40° (2theta). Stress test studies were done by exposing samples in open and closed glass bottles to the following conditions: 60° C./80% RH (8 weeks) and 80° C./RH not controlled (48 h).

The target in the next data set is T1, urotensin II receptor (Homo sapiens, UniProt Q9UKP6).
T1 sequence (Q9UKP6 1-389): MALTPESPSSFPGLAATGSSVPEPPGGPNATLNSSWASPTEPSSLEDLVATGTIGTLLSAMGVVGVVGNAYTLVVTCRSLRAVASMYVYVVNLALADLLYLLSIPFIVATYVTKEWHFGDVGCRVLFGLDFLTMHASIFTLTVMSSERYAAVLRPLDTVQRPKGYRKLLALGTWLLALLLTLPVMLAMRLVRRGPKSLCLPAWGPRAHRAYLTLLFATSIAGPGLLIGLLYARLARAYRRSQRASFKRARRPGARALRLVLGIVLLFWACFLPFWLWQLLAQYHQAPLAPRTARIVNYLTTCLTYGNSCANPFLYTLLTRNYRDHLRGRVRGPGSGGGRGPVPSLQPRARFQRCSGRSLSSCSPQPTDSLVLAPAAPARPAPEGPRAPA
The following applies: Clozel et al., J. Pharmcol. Exp. Ther. 2004, 311, 204-212; cited from earlier work.

Broadly, the solubility is how much of the substance goes into solution per volume. Lower therefore signals little dissolved substance. For `Cc1cc(NC(=O)NCCN2CCC(O)(Cc3ccccc3)CC2)c2ccccc2n1.O=C(O)CC(O)(CC(=O)O)C(=O)O` [Example 6, 1-[2-(4-Benzyl-4-hydroxy-piperidin-1-yl)-ethyl]-3-(2-methyl-quinolin-4-yl)-urea citrate], in data set [1] (water), the solubility stood at 17.8 mg/mL.
Take `Cc1cc(NC(=O)NCCN2CCC(O)(Cc3ccccc3)CC2)c2ccccc2n1` [Compound I, 1-[2-(4-Benzyl-4-hydroxy-piperidin-1-yl)-ethyl]-3-(2-methyl-quinolin4-yl)-urea]: the “hygroscopicity (in words)” value in data set [2] is recorded as “hygroscopic”. Besides, the “Increase in weight (Δm)” value in data set [2] (listed as Compound I as free base) turned out to be 8%. Also, the “Solubility Buffer pH 7 (phosphate, 100 mM)” value in data set [1] is 0.31 mg/mL. This compound displayed a Solubility water in data set [1] (water) of 0.8 mg/mL (≈ 1910 µM). For the same compound, the “solubility in water at pH 7 (in words)” value in data set [1] (water at pH 7) is “slightly soluble”. Moreover, in data set [3] (listed as compound I as free base), the “mean exposure, area under the curve (AUC0-inf.)” value worked out at 194 ng·h/mL. Moreover, the “bioavailability after oral dosing” value in data set [3] (rat, oral dosing) is recorded as “low bioavailability”. For the same compound, in data set [4], the agglomeration entry is on record as “agglomerates to a substance cake”; the colour stability entry was “its colour changes at higher temperature and higher humidity”. Also, the “urotensin II receptor antagonism” value on urotensin II receptor is “potent urotensin II receptor antagonist”.
As for `Cc1cc(NC(=O)NCCN2CCC(O)(Cc3ccccc3)CC2)c2ccccc2n1` [Example 2, 1-[2-(4-Benzyl-4-hydroxy-piperidin-1-yl)-ethyl]-3-(2-methyl-quinolin-4-yl)-urea sulfate], in data set [2] (sulfate), the “Increase in weight (Δm)” value came to 4%. For the same compound, the “Solubility Buffer pH 7 (phosphate, 100 mM)” value in data set [1] (sulfate) worked out at 27 mg/mL. Moreover, the Solubility water in data set [1] (water, sulfate) worked out at 11.3 mg/mL.
Regarding `Cc1cc(NC(=O)NCCN2CCC(O)(Cc3ccccc3)CC2)c2ccccc2n1` [Example 5, 1-[2-(4-Benzyl-4-hydroxy-piperidin-1-yl)-ethyl]-3-(2-methyl-quinolin-4-yl)-urea malate], in data set [1] (water, malate), the Solubility water is recorded as more than 101 mg/mL.
For `Cc1cc(NC(=O)NCCN2CCC(O)(Cc3ccccc3)CC2)c2ccccc2n1` [Example 1, 1-[2-(4-Benzyl-4-hydroxy-piperidin-1-yl)-ethyl]-3-(2-methyl-quinolin-4-yl)-urea sulfate], the “mean exposure, area under the curve (AUC0-inf.)” value in data set [3] (sulfate) was determined as 396 ng·h/mL.
